Non-standard residues stand in square brackets, D forms with d. Residues, ends and D or L forms follow the SMILES beside them.
Experiments:
[1] = test system: chymotrypsin; assay: Stability against protease cleavage, HPLC; type: in vitro ADME; conditions: 0.001 mg/ml protease, 22° C., FIG. 17A
Experimental: (§1) Stability of the D-PEP, and 3D-PEP, analogs, and of PEG-N-3D-PEP and PEG-C-3D-PEP conjugates against protease cleavage (chymotrypsin and trypsin) was tested and compared to stability of the native peptide having SEQ ID NO: 1. To peptides' stocks of 430 μl in concentration of 450 μM were added 0.001 mg/ml protease (Trypsin or Chymotrypsin) and incubated in room temperature (22° C.). Samples of 40 μl were taken before adding the protease and after every 15 min in the first hour, and after 2 […] and 24 h. To stop the proteolysis samples were added 7 μl of 2% TFA in TDW. The samples were added 60 μl TDW and were analyzed using analytical HPLC.

[2] = test system: MDA-MB-231 breast cancer spheroids; assay: 3D spheroid apoptosis/cytotoxicity, Annexin V-red, IncuCyte; type: cell-based, human; conditions: incubated for 36 hours, 10 or 50 μM, FIG. 11
Experimental: (§2) The MDA-MB-231 cells were plated in quadruplicate at 2×10^3 cells per well in a 96 well ULA plate (Corning 7007) and the cells were further cultured for 3 days to form spheroids. Then, the spheroids were treated with the peptides having SEQ ID NO:1 and the apoptosis of spheroids was assayed using Annexin V-red detection marker. Spheroids were imaged at ×10 magnification in an IncuCyte Zoom Live-cell analysis system (Essen Bioscience) at 37° C. with 5% CO2. Spheroid cell images were recorded every two hours and the resulting red colors, reflecting cell apoptosis, were analyzed with the IncuCyte software.)
(§3) Similarly to Example 2, the effect of D-PEP on “tumor like” 3D cancer cell spheroids of prostate cancer cells PC3 and MDA-MB-231, was tested and quantified. Annexin V-red apoptosis marker indicator was used to assess cytotoxicity and the cytotoxicity was calculated as integrated intensity over the surface (RCU×μm^2/Image).

[3] = test system: PC3 (prostate cancer) spheroids; assay: 3D spheroid cytotoxicity, Annexin V-red, IncuCyte; type: cell-based
Experimental: as §2, §3

[4] = Mice weight in xenograft study; type: in vivo; conditions: 135 μg/Kg IP or IT, days 18-30; all groups
Experimental: 30 female athymic nude (FOXN1NU) mice (5-6 weeks old) were injected subcutaneously (S.C.) with 2.5×10^6 MDA-MB-231 cells overexpressing NAF-1. Two and half weeks (day 18) after S.C. injection, mice weight and tumor size was measured. Mice were divided into three different treatment groups that were administrated 3 serial injections per week, on days 18, 21, 23, 25, 28, and 30. The groups were as follows: Group 1: Intraperitoneal (IP) injection of 135 μg/Kg D-PEP; Group 2: Intratumoral (IT) injection of PBS—control; and Group 3: Intratumoral (IT) injection of 135 μg/Kg D-PEP. On days 18, 21, 23, 25, 28 and 30 after S.C. injection of the tumor cells, tumor size and mice weight was measured in all groups.

[5] = test system: trypsin; assay: Stability against protease cleavage, HPLC; type: in vitro ADME; conditions: 0.001 mg/ml protease, 450 μM peptide, 22° C.; FIG. 17B
Experimental: as §1

Compound | metabolised at 1400 min, 450 μM ([1]; chymotrypsin (isolated protease), after 1400 min, read-out: peptide degraded by chymotrypsin) | cytotoxicity (total toxicity integrated intensity) [2] | cytotoxicity (total toxicity integrated intensity) ([3]; 10 μM, incubation for 8 hours, FIG. 7) | cytotoxicity (total toxicity integrated intensity) ([3]; 50 μM, 36 hour, compared to control, FIG. 8) | cytotoxicity (total toxicity integrated intensity) ([3]; 50 μM, incubation for 8 hours, FIG. 7) | mice weight [4] | time to complete degradation by chymotrypsin ([1]; 450 μM peptide) | time to complete degradation by trypsin [5]
CC(C)C[C@@H](NC(=O)[C@H](N)Cc1ccccc1)C(=O)NCC(=O)N[C@@H](C(=O)N[C@H](CC(C)C)C(=O)N[C@H](C)C(=O)N[C@H](CC(C)C)C(=O)N[C@H](CC(C)C)C(=O)NCC(=O)N[C@H](Cc1ccc(O)cc1)C(=O)N[C@H](CC(C)C)C(=O)N[C@H](C)C(=O)N[C@@H](C(=O)N[C@H](CCCNC(=N)N)C(=O)N1CCC[C@@H]1C(=O)N[C@H](Cc1ccccc1)C(=O)N[C@H](CC(C)C)C(=O)N1CCC[C@@H]1C(=O)N[C@H](CCCCN)C(=O)N[C@H](CCCCN)C(=O)N[C@H](CCCCN)C(=O)N[C@H](CCC(N)=O)C(=O)N[C@H](CCC(N)=O)C(=O)N[C@H](CCCCN)C(=O)O)C(C)C)C(C)C [D-PEP, flgvlallgylavrpflpkkkqqk] (H-[dF][dL]G[dV][dL][dA][dL][dL]G[dY][dL][dA][dV][dR][dP][dF][dL][dP][dK][dK][dK][dQ][dQ][dK]-OH; N-terminus and C-terminus assumed) | 20% | comparable to that seen for PC3 cell | much more moderate | much more significant cytotoxic effect than 10 μM of D-PEP | substantial cytotoxic effect | not significant change in the weight of mice |  | 
CC(C)C[C@H](NC(=O)[C@H](C)NC(=O)[C@H](CC(C)C)NC(=O)[C@@H](NC(=O)CNC(=O)[C@H](CC(C)C)NC(=O)[C@@H](N)Cc1ccccc1)C(C)C)C(=O)N[C@@H](CC(C)C)C(=O)NCC(=O)N[C@@H](Cc1ccc(O)cc1)C(=O)N[C@@H](CC(C)C)C(=O)N[C@@H](C)C(=O)N[C@H](C(=O)N[C@@H](CCCNC(=N)N)C(=O)N1CCC[C@H]1C(=O)N[C@@H](Cc1ccccc1)C(=O)N[C@@H](CC(C)C)C(=O)N1CCC[C@H]1C(=O)N[C@@H](CCCCN)C(=O)N[C@@H](CCCCN)C(=O)N[C@@H](CCCCN)C(=O)N[C@@H](CCC(N)=O)C(=O)N[C@@H](CCC(N)=O)C(=O)N[C@@H](CCCCN)C(=O)O)C(C)C [SEQ ID NO: 1] (H-FLGVLALLGYLAVRPFLPKKKQQK-OH; N-terminus and C-terminus assumed) |  |  |  |  |  |  | ~100 min | 400 min

Reference: US11208443B2, “NAF-1 derived peptides and uses thereof” (YISSUM RESEARCH DEVELOPMENT COMPANY OF THE HEBREW …, priority 2017, dated 2021)
